In data set [1] the test system is chemotherapy-induced iatrogenic pain (CIIP) in male Balb/C mice. Kind of data set: CIIP model (paclitaxel), mechanical threshold with von Frey filaments, DF2593A. Format: in vivo. Here is the method:
(§1) The experiments were performed in male Balb/c wild type (WT) and in C5aR deficient (C5aR^−/−) mice (6-8 weeks age). For the experiments with DF2593A, animals were housed in the animal care facility of the Ribeirao Preto Medical School, University of Sao Paulo, in plastic cages at 20° C.±1° C. with water and food ad libitum and controlled light/dark cycle. When done oral acute treatment, animals were kept without food for 2-4 hours. Animals were taken to the testing room at least 1 h before experiments and were used only once. Animal care and handling procedures were in accordance with the International Association for the Study of Pain guidelines and with the control of Animal Ethic Committee from Ribeirao Preto Medical School, protocol 120/2014.
(§2) The protocol used was performed according POLOMANO et al., 2001, adapted to mice. The animals received paclitaxel 4 mg/kg intraperitoneally (i.p.) for four alternate days (days 1, 3, 5, and 7). During treatment period, mechanical and cold allodynia were measured 4 hours after the injection of paclitaxel.
(§3) DF2593A was orally given in dose of 1 mg/kg at 8 and 14th days after first paclitaxel injection. The effect of drug was evaluated 2, 4, 6 and 24 hours after administration.
(§4) DF2593A was given orally in a dose of 1 mg/kg, 12 in 12 hours, for 7 days during the induction phase of CIIP. On days 1, 3 5 and 7, the administration of DF2593A was 1 hour before paclitaxel.
(§5) DF2593A in doses of 10, 30 or 100 μg/5 μL was injected at 8 and 14th days after the first injection of paclitaxel (CIIP).
(§6) In DF2593A experiments, mechanical hyperalgesia was tested using von Frey filaments. Mice were placed in acrylic cages (12×10×17 cm) with wire grid floors in a quiet room 15-30 minutes before the start of testing. A crescent series of filaments were applied on right paw of CIIP mice. The lower filament able to elicit flinching movements was recorded as the mechanical threshold. The animals were tested before and after treatments and the results are expressed as log of mechanical threshold.

Data set [2] shares this test system. Kind of data set: CIIP model (paclitaxel), cold response acetone test, DF2593A. Format: in vivo. Here is the method: as §1, §2, §3, §4, §5
In the same apparatus of von Frey test, and nearly 15 minutes after the mechanical test, was performed the acetone test. With a 1 mL syringe, one drop (50 μL) of pure acetone was released allowing the spreading of liquid for the both paw surfaces (dorsal and plantar). All movements as licking, flinching or lifting of paw were recorded with a chronometer in a total testing time of 2 minutes.

The test system of the next data set is acetylated α-Tubulin. Nature of the data set: In-cell western analysis of acetylated α-Tubulin in DRG neurons. Format: cell-based, Sprague Dawley rat. Conditions: for Acetylated α-Tubulin (% of UT): DRG neurons. Here is the method: (§7) Dorsal Root Ganglion neurons were obtained by dissociation of post natal (P2) Sprague Dawley rat ganglia (Envigo, Bresso Italy), following well-defined protocols (O'Meara et al, 2011; Owen et al, 2012). To minimize introduction of contaminating cells into the culture, any excessively long roots were trimmed from DRGs. After the isolation, DRGs were enzymatically dissociated as follows: • 20 minutes of 1.5 mg/ml papain exposure at 37° C., • 30 minutes of 4 mg/ml collagenase exposure at 37° C.
(§8) Subsequently, cells were mechanically dissociated with a fire polished glass Pasteur pipette, in order to obtain a single cell suspension.
(§9) Once dissociation was achieved, cells were seeded onto 96 black multiwell plates coated with Laminin (10 ug/mL, overnight at Room Temperature, RT) at selected densities. Following 1 week of incubation in DMEM high glucose medium supplemented with 10% FBS, 1× N2, 1× B27, 100 IU/mI penicillin, […] streptomycin, cells were treated according to experimental needs.
Dorsal Root Ganglion neurons isolated as previously reported were subjected to the following experimental challenge scheme as depicted in FIG. 10.
Paclitaxel, C5a and drugs were administered 24 hr prior the in-cell western experiment. Following 24 hr of treatment with appropriate stimuli as previously indicated, cells were washed with 1×PBS and fixed with 3,7% formaldehyde for 15 min. After the removal of fixing solution, cells were washed with 1×PBS and permeabilized with 1×PBS-0,1% Triton X-100 for 5 min at RT. Cells were then stained over night at 4° C. with the anti-acetylated α-Tubulin antibody, diluted 1:500 in Odyssey Blocking buffer, following manufacturer's protocol.
The next day, cells were washed with 1×PBS-0.1% Tween20, and stained with the secondary antibody (diluted 1:800 in Odyssey Blocking buffer, as recommended by the protocol) and with the CellTag 700Stain […]. To lower the background, Tween20 at a final concentration of 0.2% was added to the Odyssey Blocking buffer. 96-well plates were then read at Odyssey CLx Imaging system and images acquired. Data analysis was carried out by the use of Image Studio 2.1 software.
Paclitaxel was given to the DRG neurons following 7 days of culture at the concentration of 200 nM (Scuteri et al. 2006).
Effect of DF3966Y in C5α-induced neuronal toxicity In order to determine whether the observed effects may be triggered also by C5a, recombinant mouse C5a 1 μg/ml (111.11 nM) was given to the DRG neurons after 7 days of culture in presence or absence of DF3966Y 1 μM.
After 24 hr of incubation, acetylated α-Tubulin was quantified using in-cell western technique, as previously described.

In data set [3] the test system is male Balb/C mice. Nature of the data set: Intrathecal injection of recombinant C5a, mechanical threshold (von Frey hair test). It counts as in vivo. Here is the method:
as §1
(§10) Recombinant mouse C5a was given by intrathecal way, in a volume of 5 μL, and its effect follows for 1, 3, 5, 7 and 24 hours after injection.
as §6

Data set [4] has as its system male Balb/C mice. Nature of the data set: Intrathecal injection of recombinant C5a, thermal threshold (Hargreaves test). Format: in vivo. The following applies: higher doses, between 5 and 7 hours after injection. Here is the method:
as §1, §10
Hargreaves test was performed as previous described (HARGREAVES et al., 1988). The animals were habituated on a glass surface with controlled temperature, which allow the homogeneous delivery of infrared light on the paw. After the activation of the light source, a chronometer was turned on. A crescent temperature reached the paw and the chronometer was turned off as soon as the animal did a withdraw movement out the light. The time recorded was considered the heat latency. […]

Data set [5] concerns DRG neurons. Kind of data set: Cells number of DRG neurons (immunofluorescence, image analysis). Format: cell-based. The procedure: as §7, §8, §9
(§11) Alpha Tubulin Acetylation DRG-derived neurons were cultured for 7 days and then treated with:
(§12) • paclitaxel (200 nM, 500 nM, 1 μM and 5 μM, 20 μM) in presence or absence of DF3966Y (0.1, 1 and 10 μM) or DF2593A (0.1, 1 and 10 μM) • or C5a (500 ng/ml and 1 μg/ml) in presence or absence of DF3966Y (1 μM)
(§13) After 24 hr of treatment, cells were stained by immunofluorescence.
(§14) Cells were fixed with saccharose-paraformaldehyde then staining was performed overnight. Primary antibodies (anti—Ill Tubulin and anti-synaptotagmin 1) were diluted 1:500 in 1×PBS-4% BSA-2% Normal goat serum and 0.3% Triton x-100. The next day, cells were washed with 1×PBS-4% BSA and secondary antibodies were used diluted 1:500 in 1×PBS-4% BSA-2% Normal goat serum and 0.3% Triton x-100. After 1 hr of incubation, cells were washed with 1×PBS. Hoechst was used as a counterstain.
(§15) Sixteen images per well were taken with ArrayScan XTI HCA Reader (Thermo Fisher Scientific) with and 40× objective. All the analysis were done with HCS Studio software
(§16) Cells number, synapse number and dentritic arborization were evaluated in untreated cells and in cells stimulated with paclitaxel and C5a alone or in presence of the drug. As marker of chemotherapy-induced toxicity, the total number of synapses on DRG neurons was quantitative evaluated as percentage of the number of synapse with respect to untreated (UT) control.
(§17) Data are obtained as the sum of the values obtained by the analysis of sixteen fields per well for each experiment. Percentage of the values in respect to the relative mean untreated group was calculated. Mean of the percentages from 4 separate experiments was plotted in the following Tables 2-7.

Data set [6] deals with DRG neurons. Kind of data set: Synapse number on DRG neurons (synaptotagmin staining, image analysis). Format: cell-based, Sprague Dawley rat. The procedure: as §7, §8, §9, §11, §12, §13, §14, §15
For synapse count a threshold has been set, in particular all the objects, positive to synaptotagmin staining, in the range 0.365-2.457 μm^2 have been considered as synapses.
as §16, §17

The test system of data set [7] is DRG neurons. Kind of data set: Dendritic tree area of DRG neurons (image analysis). Format: cell-based, Sprague Dawley rat. Conditions: C5a alone (Table 7), relative to UT. The procedure:
as §7, §8, §9, §11, §12, §13, §14, §15
Dendritic arborization directly influences synaptic genesis and input. A well-developed arborization indicates a functional synaptic network. For this reason, the area occupied by dendritic arborization has been quantified.
as §17

Data set [8] relates to DRG neurons. Kind of data set: Electrophysiological recordings (whole-cell patch-clamp, current-clamp) of DRG-derived neurons. Format: cell-based, Sprague Dawley rat. Conditions: 1 μg/ml C5a alone. Here is the method:
as §7
Dorsal Root Gangliar (DRG)-derived neurons were cultured for 7 days and then treated in blind with the following combinations: 10 nM Paclitaxel, 10 nM Paclitaxel+1 μM DF3966Y, 1 μg/ml C5a, 1 μg/ml C5a+1 μM DF3966Y.
The compounds were administered for 1 min 30 sec (short acute stimulation) or 5 minutes (long chronic stimulation). The application of the compounds was followed by a wash-out in the physiological control solution for an equivalent time (about 10 min).
Electrophysiological recordings were performed by the patch-clamp technique in the whole-cell configuration. The standard extracellr solution was bath applied and contained the following (mM): NaCl 135, KCl 2, CaCl2 2, MgCl2 2, hepes 10, glucose 5, pH 7.4. The standard pipet solution contained the following (mM): potassium aspartate 130, NaCl 10, MgCl2 2, CaCl2 1.3, EGTA 10, Hepes 10, pH 7.3. Recordings were acquired by the pClamp8.2 software and the MultiClamp 700A amplifier (Axon Instruments), in current-clamp mode.
Background: Patch clamp records ionic current or voltage across a cell membrane.

Where [9] appears, read: 1 mg/kg oral, 8th and 14th day of CIIP, 2 until 6 hours after administration.
The mark [10] stands for this setting: 1 mg/kg p.o. 12/12 hours for 7 days during induction phase of CIIP, 1 hour before paclitaxel.
[11] abbreviates: 10, 30 or 100 μg/5 μL intrathecal, established CIIP (8 and 14th day).

Consider two molecules from patent publication US12102607B2, “C5aR inhibitors for use in the treatment of chemotherapy-induced iatrogenic pain” (Dompe' Farmaceutici S.P.A., priority 2017, dated 2024).

As for `C[C@@H](NC(=O)CCCN1CCCCC1)c1ccc(OS(=O)(=O)C(F)(F)F)cc1` [DF2593A, N-[(1R)-1-(4-trifluoromethanesulfonyloxy)phenylethyl]-4-piperidin-1-ylbutanamide], the “efficacy of the lowest intrathecal dose” value in data set [1] (10 μg/5 μL intrathecal, 8th day) is listed as “still statistically significant”. Further, the “mechanical hypersensitivity, acute oral post treatment” value in data set [1] (setting [9]) is “able to reduce the mechanical hypersensitivity”. For the same molecule, the “duration of reduction of mechanical and cold hypersensitivity after administration” value in [1] (1 mg/kg oral, established pain condition) is given as “at least 6 hours”. Moreover, the “development of mechanical nociceptive response, chronic pre treatment” value in data set [1] (setting [10]) was “prevents the development”. For the same molecule, the “mechanical allodynia, intrathecal treatment” value in [1] (setting [11]) was “improves mechanical and cold allodynia”. In data set [1] (chronic 1 mg/kg p.o., 24 hours after the last DF2593A dose), the “effect on mechanical and cold response 24 hours after the last dose” value is recorded as “no effect is observed”. For the same molecule, the “cold response, acute oral post treatment” value in [2] (setting [9]) is recorded as “is reduce after DF2593A treatment”. The “development of cold nociceptive response, chronic pre treatment” value in data set [2] (setting [10]) was “prevents the development”. In data set [2] (setting [11]), the “cold allodynia, intrathecal treatment” value was “improves mechanical and cold allodynia”. The “Acetylated α-Tubulin (% of UT)” value was 107.38 % of UT in the data set with acetylated α-Tubulin (drug 0.1 μM under Paclitaxel 200 nM, 24 hr); 100.67 % of UT in the data set with acetylated α-Tubulin (drug 1 μM under Paclitaxel 200 nM, 24 hr); 70.72 % of UT in the data set on acetylated α-Tubulin (drug 10 μM under Paclitaxel 200 nM, 24 hr). Moreover, the “reversal of Paclitaxel-induced increase in acetylated α-Tubulin” value in the data set with acetylated α-Tubulin (drug 0.1 μM, Paclitaxel 200 nM) is “not able to revert”; in the data set on acetylated α-Tubulin (drug 1 μM, Paclitaxel 200 nM), “reverted the Paclitaxel-induced challenge”. The “reduction in acetylated α-Tubulin with respect to control (UT) cells” value with acetylated α-Tubulin (drug 10 μM, Paclitaxel 200 nM) is reported as “about 25%”.

B1: C5a: recombinant mouse C5a, complement peptide fragment, purchased from R&D (protein, UniProt P06684 679-755, looked up)
C5a anaphylatoxin: NLHLLRQKIEEQAAKYKHSVPKKCCYDGARVNFYETCEERVARVTIGPLCIRAFNECCTIANKIRKESPHKPVQLGR
modifications: C5a anaphylatoxin
notes: recombinant mouse C5a, complement peptide fragment, purchased from R&D
As for B1, the “mechanical threshold after intrathecal C5a” value in the data set with male Balb/C mice [3] (100, 300 and 600 ng/5 μL intrathecal, mice, up to 24 hours after injection) is given as “promoted reduction of mechanical threshold in a dose-dependent manner”. Moreover, in the data set with male Balb/C mice [3] (intrathecal C5a, C5aR−/− mice), the “C5a pro-nociceptive effect in C5aR−/− mice” value is recorded as “abrogated”. The “heat latency after intrathecal C5a” value in the data set on male Balb/C mice [4] was “caused a decrease in heat latency”. Moreover, in the data set with acetylated α-Tubulin (C5a 1 μg/ml alone, 24 hr), the “levels of acetylated α-Tubulin under C5a” value is given as “able to increase the levels of acetylated α-Tubulin”. Besides, in the data set with DRG neurons [5] (C5a alone (Table 3), relative to UT), the “% of cell number” value is recorded as 98.69 ± 4.22%. The neuronal death result in the data set on DRG neurons [5] (C5a alone or in combination with DF3966Y 1 μM) is reported as “did not induce neuronal death”. Further, the “neuronal activity damage (synapse number)” value in the data set with DRG neurons [6] (C5a alone) was “did not induce neuronal activity damage”. Further, the “% of synapse number” value with DRG neurons [6] (C5a alone (Table 5), relative to UT) is 116.90 ± 17.43%. In the data set on DRG neurons [7], the “% dendritic tree area” value is 102.68 ± 9.48%. Besides, in the data set on DRG neurons [8] (immediate), the “increase of the firing rate, immediate” value was “+55.61%”. For the same molecule, in the data set on DRG neurons [8] (longer times of exposure), the “reduction of electrical activity, longer times of exposure” value is listed as “about 70%”.
